Molecular target: recombinant IL4I1 (Homo sapiens (Human), UniProt Q96RQ9)
Test: IL4I1 Enzymatic Assay (Amplex Red/HRP coupled fluorescence detection of H2O2)
Assay type: biochemical
Details: 240 min; recombinant IL4I1, four-hour pre-incubation with compound
In short: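 Ten-point, 1:3 compound titrations were fitted by four-parameter sigmoidal regression to give EC50. Resorufin fluorescence (544/590 nm) from Amplex Red/HRP-coupled H2O2 detection was read 120 min after adding 1 mM each aromatic amino acid to 1 nM IL4I1, following a 4 h compound pre-incubation in pH 7.0 Hepes buffer.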

recombinant IL4I1, sequence (Q96RQ9 22-567): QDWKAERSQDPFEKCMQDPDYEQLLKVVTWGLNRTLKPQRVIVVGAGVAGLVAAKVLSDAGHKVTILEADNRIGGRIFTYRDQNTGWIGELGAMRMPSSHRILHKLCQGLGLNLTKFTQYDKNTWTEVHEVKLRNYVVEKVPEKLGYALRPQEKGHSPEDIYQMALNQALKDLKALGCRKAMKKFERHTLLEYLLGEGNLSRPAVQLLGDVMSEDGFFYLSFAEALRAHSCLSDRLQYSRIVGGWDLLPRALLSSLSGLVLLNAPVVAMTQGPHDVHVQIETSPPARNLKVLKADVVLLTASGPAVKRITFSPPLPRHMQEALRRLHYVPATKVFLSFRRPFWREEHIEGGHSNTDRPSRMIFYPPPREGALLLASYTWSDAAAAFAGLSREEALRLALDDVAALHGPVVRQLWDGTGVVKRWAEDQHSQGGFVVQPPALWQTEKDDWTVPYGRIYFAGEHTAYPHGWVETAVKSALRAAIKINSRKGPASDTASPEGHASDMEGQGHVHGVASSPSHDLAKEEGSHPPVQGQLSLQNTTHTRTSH

SMILES | EC50
O=C1C(=O)N(C2CC(c3ccccc3)C2)CCN1Cc1ncc(-c2ccccc2)cn1 (centres unmarked) [Example 141, 1-(3-phenylcyclobutyl)-4-((5-phenylpyrimidin-2-yl)methyl)piperazine-2,3-dione] | 23 nM
O=c1c(=O)n([C@H]2C[C@H]3C[C@H]3C2)ccn1Cc1cnc(-c2ccccc2)cn1 [Example 125] | 3 nM
O=C1C(=O)N(C2CCCC2)CCN1Cc1nnc(-c2ccccc2)s1 [Example 346, 1-cyclopentyl-4-((5-phenyl-1,3,4-thiadiazol-2-yl)methyl)piperazine-2,3-dione] | 7 nM
O=c1c(=O)n(C23CC(C2)C3)ccn1Cc1ccc(-c2nccs2)nn1 [Example 366, 1-(bicyclo[1.1.1]pentan-1-yl)-4-((6-(thiazol-2-yl)pyridazin-3-yl)methyl)-1,4-dihydropyrazine-2,3-dione] | 9 nM
O=C1C(=O)N(C2CCC2)CCN1CC12CC(c3ccccn3)(C1)C2 [Example 177, 1-cyclobutyl-4-((3-(pyridin-2-yl)bicyclo[1.1.1]pentan-1-yl)methyl)piperazine-2,3-dione] | 84 nM
CC1(n2ccn(Cc3ccc(-n4nccn4)nn3)c(=O)c2=O)CC1 [Example 332, 1-((6-(2H-1,2,3-triazol-2-yl)pyridazin-3-yl)methyl)-4-(1-methylcyclopropyl)-1,4-dihydropyrazine-2,3-dione] | 76 nM
O=c1c(=O)n([C@H]2C[C@H]3C[C@H]3C2)ccn1Cc1ccc(-n2ccnn2)nn1 [Example 331, 1-((6-(1H-1,2,3-triazol-1-yl)pyridazin-3-yl)methyl)-4-((cis)-bicyclo[3.1.0]hexan-3-yl)-1,4-dihydropyrazine-2,3-dione] | 9 nM
O=C1C(=O)N(C2CCCC2)CCN1Cc1ccc(-c2cncs2)nc1 [Example 17, 1-cyclopentyl-4-((6-(thiazol-5-yl)pyridin-3-yl)methyl)piperazine-2,3-dione] | 7 nM
O=C1C(=O)N(C23CC(C2)C3)CCN1Cc1cnc(-c2ccccc2)nc1 [Example 110, 1-(bicyclo[1.1.1]pentan-1-yl)-4-((2-phenylpyrimidin-5-yl)methyl)piperazine-2,3-dione] | 27 nM
CC1(n2ccn(Cc3cc(-c4ccc(F)cc4)no3)c(=O)c2=O)CCC1 [Example 189, 1-((3-(4-fluorophenyl)isoxazol-5-yl)methyl)-4-(1-methylcyclobutyl)-1,4-dihydropyrazine-2,3-dione] | 4 nM
CC1CN(Cc2ncc(-c3ccccc3)cn2)C(=O)C(=O)N1C1CCCC1 (single isomer, unassigned) [Example 341, (R or S)-4-cyclopentyl-5-methyl-1-((5-phenylpyrimidin-2-yl)methyl)piperazine-2,3-dione] | 19 nM
O=C1C(=O)N(C2CCC2)CCN1Cc1cc(-c2ccccc2)no1 [Example 148, 1-cyclobutyl-4-((3-phenylisoxazol-5-yl)methyl)piperazine-2,3-dione] | 2 nM
O=C1C(=O)N(C23CC(C2)C3)CCN1Cc1ccc(-n2nccn2)nc1 [Example 116, 1-((6-(2H-1,2,3-triazol-2-yl)pyridin-3-yl)methyl)-4-(bicyclo[1.1.1]pentan-1-yl)piperazine-2,3-dione] | 17 nM
CC(C)(C)N1CCN(Cc2ncc(-c3ccccc3)cn2)C(=O)C1=O [Example 345, 1-(tert-butyl)-4-((5-phenylpyrimidin-2-yl)methyl)piperazine-2,3-dione] | 59 nM

— patent US20240246937A1 (MERCK SHARP & DOHME LLC, priority 2021, published 2024)
